Data as given in paper PMC9501768, “A New Class of Tunable Acid-Sensitive Linkers for Native Drug Release Based on the Trityl Protecting Group” (Bioconjugate Chemistry, 2022).
Where two headings read alike, the source gives them in different places.

Columns and labels:
[1] = Release of native API from API-linker construct in buffer (UHPLC, first-order fit); type: physicochemical
Method: Release of DMXAA-amine 1 from the linker construct 12 (method described in S3.1) was measured at 37 °C for 24 h. At set time points, the concentration of the native compound 1 in a buffer of different pH values was measured by ultrahigh performance liquid chromatography (UHPLC) as shown in Figure 3.
The half-life values (t1/2) were determined from the slope of the first-order kinetic curves fitted through the release curve and are shown in Table 2. Details are provided in Section S3 of the Supporting Information. […]
S3: In vitro release protocol and stability control
S3.1 Release of API from API-linker construct
API-linker constructs 12-16, 17 and 18 were dissolved in DMSO at 1 mg/mL. This was then further diluted 10x in 20 mM sodium phosphate buffer 130 mM NaCl pH 7.4, 100 mM sodium citrate buffer 50 mM NaCl pH 6.5, 20 mM ammonium acetate 130 mM NaCl pH 5.0 or if needed 100 mM sodium phosphate buffer 50 mM NaCl pH 3.0. These dilutions were incubated at 37°C in the sample tray and at different timepoints, the concentration of free API 1, 2, or 3 was measured on a H-class UPLC system (Waters) (Figure S7 and S8)
Figure S 7: Chromatogram of 15 at 37°C, pH 7.4 t=0 hours
(1 picture or pasted object on this page, not shown here)
Figure S 8: Chromatogram of 15 at 37°C, pH 7.4, t= 12 hours […]
injection volume, 30 °C column temperature. Run with the following gradient: […]
Time (min) Flow rate %A %B
With A: 25 mM Ammonium acetate buffer pH 5.0 and B: acetonitrile.
2: Acquity HSS T3 1.7 μm, 50 x 2.1 mm column for 18 at 275 nm, 5.0 µL injection volume, 30 °C column temperature. Run with the following gradient: […]
Time (min) Flow rate % A % B
With A: phosphate buffer pH 2.5 and B: methanol.
3: Acquity BEH C18 1.7 μm, 50 x 2.1 mm for 18 at 233 nm, 2.0 µL injection volume, 30 °C column […]
With A: 10 mM ammonium bicarbonate pH 9.6 and B: acetonitrile.
Measured concentrations were plotted using GraphPad Prism 9 and fitted based on first order kinetics.
All fitted lines complied with an R2>0.95. This gave the half-life and plateau when this was not reached within the measured timeframe. […]
Size of all particles were confirmed to be between 55 and 70 nm.

[2] = as above; type: physicochemical; details: pH 5.0, 37 °C
[3] = design: method as in PMID 14644; details: doxorubicin amine nitrogen bound to trityl; cited from earlier work
[4] = ammonium acetate buffer, pH 5, API-trityl linker construct in buffer, pH 5.0, 37 °C, read-out: t1/2 pH 5.0 (converted)
[5] = sodium citrate buffer, pH 6.5, API-trityl linker construct in buffer, pH 6.5, 37 °C, read-out: t1/2 pH 6.5 (converted)
[6] = sodium phosphate buffer, pH 7.4, API-trityl linker construct in buffer, pH 7.4, 37 °C, values for 17 are estimations (doxorubicin precipitation), read-out: t1/2 pH 7.4 (converted)

COc1cccc2c1C(=O)c1c(O)c3c(c(O)c1C2=O)C[C@@](O)(C(=O)CO)C[C@@H]3O[C@H]1C[C@H](N)[C@H](O)[C@H](C)O1 [compound 2, doxorubicin, reference compound]
half-life at 0.1 mg/mL [1, 4]: < 1 h

Nc1ccn([C@@H]2O[C@H](CO)[C@@H](O)C2(F)F)c(=O)n1 [compound 3, gemcitabine]
release at pH 5.0 within 72 h [2]: no detectable release

C=C(C)C(=O)NCCCNC(=O)c1cccc(C(Nc2ccc(CC(=O)[O-])c3oc4c(C)c(C)ccc4c(=O)c23)(c2ccc(OC)cc2)c2ccc(OC)cc2)c1.[Li+] [compound 12]
half-life at 0.1 mg/mL [1, 4]: 1.8 ± 0.1 h | release of native DMXAA-amine 1 at pH 5 ([1]; construct in buffer, pH 5, 37 °C, within 12 h): 100% | release of native DMXAA-amine 1 at pH 6.5 ([1]; construct in buffer, pH 6.5, 37 °C, over 24 h): ~20% | release of native DMXAA-amine 1 at pH 7.4 ([1]; construct in buffer, pH 7.4, 37 °C, over 24 h): Hardly any release | half-life at 0.1 mg/mL [1, 5]: 83 ± 27 h

C=C(C)C(=O)NCCCNC(=O)c1ccc(C(Nc2ccc(CC(=O)[O-])c3oc4c(C)c(C)ccc4c(=O)c23)(c2ccc(OC)c(OC)c2)c2ccc(OC)c(OC)c2)cc1.[Li+] [compound 13]
half-life at 0.1 mg/mL [1, 4]: < 1 h | half-life at 0.1 mg/mL [1, 5]: 1.2 ± 0.1 h | half-life at 0.1 mg/mL [1, 6]: 4.2 ± 0.2 h

C=C(C)C(=O)NCCCNC(=O)c1ccc(C(Nc2ccc(CC(=O)[O-])c3oc4c(C)c(C)ccc4c(=O)c23)(c2ccc(OC)cc2OC)c2ccc(OC)cc2OC)cc1.[Li+] [compound 14]
half-life at 0.1 mg/mL [1, 4]: < 1 h | half-life at 0.1 mg/mL [1, 5]: < 1 h | half-life at 0.1 mg/mL [1, 6]: < 1 h

C=C(C)C(=O)NCCCNC(=O)c1ccc(C(Nc2ccc(CC(=O)[O-])c3oc4c(C)c(C)ccc4c(=O)c23)(c2ccc(OC)c(C)c2)c2ccc(OC)c(C)c2)cc1.[Li+] [compound 15]
half-life at 0.1 mg/mL [1, 4]: < 1 h | half-life at 0.1 mg/mL [1, 5]: 1.9 ± 0.2 h

C=C(C)C(=O)NCCCNC(=O)c1cccc(C(Nc2ccc(CC(=O)[O-])c3oc4c(C)c(C)ccc4c(=O)c23)(c2ccc(OC)c(OC)c2)c2ccc(OC)c(OC)c2)c1.[Li+] [compound 16]
half-life at 0.1 mg/mL [1, 4]: < 1 h | half-life at 0.1 mg/mL [1, 5]: < 1 h | half-life at 0.1 mg/mL [1, 6]: 2.3 ± 0.1 h

C=C(C)C(=O)NCCCNC(=O)c1cccc(C(N[C@H]2C[C@H](O[C@H]3C[C@](O)(C(=O)CO)Cc4c(O)c5c(c(O)c43)C(=O)c3c(OC)cccc3C5=O)O[C@@H](C)[C@H]2O)(c2ccc(OC)cc2)c2ccc(OC)cc2)c1 [compound 17]
half-life at 0.1 mg/mL ([1]; API-trityl linker construct in buffer, pH 5.0, 37 °C, read-out: t1/2 pH 5.0 (converted)): < 1 h | half-life at 0.1 mg/mL ([1]; API-trityl linker construct in buffer, pH 7.4, 37 °C, values for 17 are estimations (doxorubicin precipitation), read-out: t1/2 pH 7.4 (converted)): ~6 h | pKa of the most basic nitrogen [3]: 8.4

C=C(C)C(=O)NCCCNC(=O)c1cccc(C(Nc2ccn([C@@H]3O[C@H](CO)[C@@H](O)C3(F)F)c(=O)n2)(c2ccc(OC)cc2)c2ccc(OC)cc2)c1 [compound 18]
t1/2 pH 3.0 (h) ([1]; API-trityl linker construct in buffer, pH 3.0, 37 °C, listed as gem–trityl 18): 23.2 ± 0.5 h | half-life at 0.1 mg/mL [1, 4]: > 72 h | half-life at 0.1 mg/mL ([1]; sodium phosphate buffer, pH 3, API-trityl linker construct in buffer, pH 3.0, 37 °C, read-out: t1/2 pH 3.0 (converted)): 23.3 h | half-life at 0.1 mg/mL [1, 6]: > 72 h
